Experimental findings from ChEMBL document CHEMBL1149385, “A selective estrogen receptor modulator for the treatment of hot flushes” (J Med Chem, 2006) are described below.

In assay [1] the target is T1, Estrogen receptor (Homo sapiens, UniProt P03372).
T1 sequence (P03372 whole entry): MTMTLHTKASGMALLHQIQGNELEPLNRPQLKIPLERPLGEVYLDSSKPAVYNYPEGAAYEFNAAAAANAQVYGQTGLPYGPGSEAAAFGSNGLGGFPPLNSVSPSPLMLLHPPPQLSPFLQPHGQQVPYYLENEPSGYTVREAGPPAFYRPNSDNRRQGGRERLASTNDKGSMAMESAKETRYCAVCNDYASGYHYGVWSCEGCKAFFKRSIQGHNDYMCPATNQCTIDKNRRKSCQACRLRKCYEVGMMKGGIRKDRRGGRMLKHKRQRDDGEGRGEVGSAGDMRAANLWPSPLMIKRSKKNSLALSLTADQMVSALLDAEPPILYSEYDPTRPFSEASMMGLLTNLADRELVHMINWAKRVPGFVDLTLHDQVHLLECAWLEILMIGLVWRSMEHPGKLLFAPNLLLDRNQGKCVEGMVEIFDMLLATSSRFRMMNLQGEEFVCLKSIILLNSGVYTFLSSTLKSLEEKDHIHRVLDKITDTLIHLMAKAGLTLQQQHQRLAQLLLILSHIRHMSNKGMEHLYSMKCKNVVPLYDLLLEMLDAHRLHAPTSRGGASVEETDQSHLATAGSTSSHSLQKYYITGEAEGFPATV
The assay can be described thus: Displacement of [3H]17beta-estradiol from ERalpha. (In general: Displacement assays read how much labelled ligand stays bound in the presence of the test substance.)

Assay [2] deals with T2, Estrogen receptor (Homo sapiens, UniProt Q92731+P03372). In words: Antagonist effect on breast adenocarcinoma-derived MCF7 cell line. The format is functional, cell-based.
A further assay concerns the target Estrogen receptor beta (Homo sapiens, UniProt Q92731). In words: Displacement of [3H]17beta-estradiol from ERbeta.
Assay [3] concerns the target T2, Estrogen receptor. In words: Antagonist effect on Ishikawa uterine cancer cell line in presence of 17-beta-estradiol. In kind it is functional, cell-based.
The test system of assay [4] is Rattus norvegicus. The assay can be described thus: Inhibition of estrogen-induced effect on uterine weight in orally dosed Sprague-Dawley rat. In kind it is functional.
The test system of assay [5] is Rattus norvegicus. The assay can be described thus: Ability to block ovariectomy-induced bone loss in orally dosed Sprague-Dawley rat. In kind it is functional, organism-based.
The subject of assay [6] is Rattus norvegicus. The assay can be described thus: Eosinophil peroxidase activity in ovariectomized orally dosed Sprague-Dawley rat. In kind it is functional, organism-based. To be noted: filed as agonist.
Assay [7] deals with Rattus norvegicus. The assay can be described thus: Efficacy against hot flush in morphine dependent ovariectomized orally dosed Sprague-Dawley rat model. In kind it is functional, organism-based.
Assay [8] relates to Rattus norvegicus. The assay can be described thus: Ability to reduce serum cholesterol level in ovariectomized orally dosed Sprague-Dawley rat at 0.01 mg/kg. In kind it is functional. Also on record: scale not given: the % may be the effect or the level left. To be noted: route oral.

Broadly, the Ki is a dissociation constant, usually derived from enzyme kinetics or from competition with a known ligand. By IC50 is commonly meant the concentration needed to halve the response being measured. By ED50 is commonly meant the midpoint of the dose-response relation.

The source made the active and inactive calls. The rule behind the calls is not given here.

Sequence of Estrogen receptor beta (Q92731 whole entry): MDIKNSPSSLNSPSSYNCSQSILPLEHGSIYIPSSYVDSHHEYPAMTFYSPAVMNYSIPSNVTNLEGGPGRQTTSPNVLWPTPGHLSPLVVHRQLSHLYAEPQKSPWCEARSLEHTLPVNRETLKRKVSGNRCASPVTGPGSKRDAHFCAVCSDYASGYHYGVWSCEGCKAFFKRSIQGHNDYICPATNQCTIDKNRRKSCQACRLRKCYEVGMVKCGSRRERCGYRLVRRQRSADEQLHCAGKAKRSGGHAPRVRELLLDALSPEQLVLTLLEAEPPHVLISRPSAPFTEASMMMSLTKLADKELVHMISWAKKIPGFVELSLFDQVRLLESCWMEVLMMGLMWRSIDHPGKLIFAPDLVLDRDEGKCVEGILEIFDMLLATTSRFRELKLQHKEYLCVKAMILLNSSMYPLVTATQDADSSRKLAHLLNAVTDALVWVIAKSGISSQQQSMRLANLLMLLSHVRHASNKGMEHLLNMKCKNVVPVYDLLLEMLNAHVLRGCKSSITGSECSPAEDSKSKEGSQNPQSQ

`Cl.Oc1ccc2c3c(ccc2c1)-c1cc(F)cc(F)c1O[C@H]3c1ccc(OCCN2CCCCC2)cc1`: the Ki at Estrogen receptor [1] turned out to be 5.8 nM; on Estrogen receptor beta, 54 nM. Moreover, the IC50 against Estrogen receptor [2] is recorded as 330 nM; at Estrogen receptor [3], 430 nM. Also, the ED50 result with Rattus norvegicus [4] is “inactive”.

With `O=C(c1ccc(OCCN2CCCC2)cc1)c1c(-c2ccc(O)cc2)sc2cc(O)ccc12`, the outcome in the assay on Rattus norvegicus [5] was Active. Also, the Activity entry in the assay with Rattus norvegicus [6] was “Antagonist”.

Take `Cl.Oc1ccc2c3c(ccc2c1)-c1cc(F)cc(F)c1O[C@@H]3c1ccc(OCCN2CCCCC2)cc1`: the figures for the inhibition constant Ki at Estrogen receptor [1] and on Estrogen receptor beta were 0.3 nM and 0.5 nM, respectively. Besides, the outcome in the assay on Rattus norvegicus [5] was Active. Moreover, the IC50 amounted to 1.4 nM against Estrogen receptor [2] and 5.3 nM at Estrogen receptor [3]. The Activity entry with Rattus norvegicus [6] was “Antagonist”; with Rattus norvegicus [8] it was 50%. In the assay with Rattus norvegicus [7], the Efficacy entry is “Dose-dependent effect”. In addition, the 50% effect level in the assay on Rattus norvegicus [4] (po) (ED50) was put at a dose of 0.03 mg/kg.
